# Assay: Solubility in water of the drug substance
# Assay type: physicochemical
# Conditions: drug substance as used
# From the text: The drug solubility in water of a drug may be determined, for example, in accordance with the method described in the General Notices of The Japanese Pharmacopoeia, Seventeenth Edition.
Structure (SMILES),"solubility at 30 min (water, 20 °C, thermodynamic from solid)",Solubility in water
Cc1cccc(C)c1N(CC(=O)Nc1ccc(-c2ncon2)cc1)C(=O)C1CCS(=O)(=O)CC1 [amenamevir],5 µg/mL,–
C=CC[C@@H]1/C=C(\C)C[C@H](C)C[C@H](OC)[C@H]2O[C@@](O)(C(=O)C(=O)N3CCCC[C@H]3C(=O)O[C@H](/C(C)=C/[C@@H]3CC[C@@H](O)[C@H](OC)C3)[C@H](C)[C@@H](O)CC1=O)[C@H](C)C[C@@H]2OC [tacrolimus],–,4 µg/mL

# Source: patent US11376328B2, “Pharmaceutical composition” (Astellas Pharma Inc., priority 2017, dated 2022)
